From ChEMBL document CHEMBL1152733, “Specificities of calreticulin transacetylase to acetoxy derivatives of 3-alkyl-4-methylcoumarins: effect on the activation of nitric oxide synthase” (Bioorg Med Chem, 2009)
Calls of active or inactive are those of the source.

Key:
Rattus norvegicus [1] = organism: Rattus norvegicus; assay: Inhibition of rat liver microsomal CRTAase-mediated inhibition of cytosolic glutathione S-transferase activity
Rattus norvegicus [2] = organism: Rattus norvegicus; assay: Inhibition of rat liver microsomal CRTAase catalyzed activation of NADPH cytochrome C reductase
Platelet = assay: Increase in NO levels in citreated human platelet rich plasma assessed as enhancement of dichloro fluorescein fluorescence by flow cytometry; type: functional

Measured: Activity

CCc1c(C)c2ccc(OC(C)=O)cc2oc1=O
active: Rattus norvegicus [1] | Rattus norvegicus [2] | Platelet

CC(=O)Oc1ccc2c(C)cc(=O)oc2c1
active: Rattus norvegicus [1] | Rattus norvegicus [2] | Platelet

CCCCCCc1c(C)c2ccc(OC(C)=O)cc2oc1=O
active: Rattus norvegicus [1] | Rattus norvegicus [2] | Platelet

CCCCCCCCCCc1c(C)c2ccc(OC(C)=O)cc2oc1=O
active: Rattus norvegicus [1] | Rattus norvegicus [2] | Platelet

CCCCCCCCCCc1c(C)c2ccc(OC(C)=O)c(OC(C)=O)c2oc1=O
active: Rattus norvegicus [1] | Rattus norvegicus [2] | Platelet

CC(=O)Oc1ccc2c(C)cc(=O)oc2c1OC(C)=O
active: Rattus norvegicus [1] | Rattus norvegicus [2] | Platelet

CCc1c(C)c2ccc(OC(C)=O)c(OC(C)=O)c2oc1=O
active: Rattus norvegicus [1] | Rattus norvegicus [2] | Platelet

CCCCCCc1c(C)c2ccc(OC(C)=O)c(OC(C)=O)c2oc1=O
active: Rattus norvegicus [1] | Rattus norvegicus [2] | Platelet
